Assays:
[1] = system: SKBr3 cells; experiment: Cytotoxicity against SKBr3 cells (CellTiter-Glo, 72 h); assay type: cell-based; conditions: Homo sapiens, SK-BR-3, 72 h, read-out: Cytotoxicity against SKBr3 Cells (IC50, μM)
Procedure: Cytotoxicity was determined with SKBr3 cells (ATCC HTB-30), a breast cancer cell line. […] Cells were plated into 96-well microtiter back plates at 4,000 cells per 50μL per well, overnight. Serial 10x dilutions of test compound (10 μM to 0.1 pM) in cell culture media were prepared with a Biomek 2000 apparatus, using the protocols of deeper-1000 μL-media and deeper-1000 μL-dilution. 50 μL of each dilution was added to wells containing cells. Each compound or control (medium only) was tested in duplicate. For each assay, the wells contained a final volume of 100 μL (50 μL of cells and 50 μL of compound dilution). […] CellTiter-Glo Luminescent Reagent (Promega #G7573) (100 μL) was added to each well. The well contents were mixed for 5 min and the plates were kept at room temperature for another 30 min. Luminescence was recorded using a Wallac VICTOR^2 Multilabel Counter (PerkinElmer) and IC50 values were determined using Kaleidagraph software (Synergy Software).

[2] = target: Hsp90 (Homo sapiens, UniProt P07900); experiment: Hsp90 filter binding assay
[3] = system: CCFT-CEM cells; experiment: Cytotoxicity against CCFT-CEM cells; conditions: read-out: IC50, cytotoxicity against CCFT-CEM cells

For `COC1CCC=CC(=O)Nc2cc(cc(O)c2CN2CCOCC2)CC(C)CC(OC)C(O)C(C)C=C(C)C1OC(N)=O` (centres unmarked) [Compound 1-G], the IC50 [1] was > 5 µM and the Kd [2] was 640 nM.

Work on `COC1=C2C[C@@H](C)C[C@H](OC)[C@H](O)[C@@H](C)/C=C(\C)[C@H](OC(N)=O)[C@@H](OC)/C=C\C=C(/C)C(=O)NC(=CC1=O)C2=O` [Geldanamycin, reference compound] yielded an IC50 [1] of 0.023 µM.

`COC1CCC=CC(=O)Nc2cc(cc(OCCN(C)C)c2)CC(C)CC(OC)C(O)C(C)C=C(C)C1OC(N)=O` (centres unmarked) [Compound 1-C] was tested, and the IC50 [1] was > 10 µM and the Kd [2] was 230 nM.

With `COC1CCC=CC(=O)Nc2cc(cc(OCC(N)=O)c2)CC(C)CC(OC)C(O)C(C)C=C(C)C1OC(N)=O` (centres unmarked) [Compound 1-E] the IC50 [1] was > 5 µM and the Kd [2] was 440 nM.

For `CO[C@H]1C[C@H](C)Cc2cc(O)cc(c2)NC(=O)CC(O)CC[C@H](OC)[C@@H](O)/C(C)=C/[C@H](C)[C@H]1O` (some centres unmarked) [IV], the IC50 [1] was > 5 µM and the Kd [2] was 17000 nM.

`COC1CCC=CC(=O)Nc2cc(cc(O)c2CN(C)C)CC(C)CC(OC)C(O)C(C)C=C(C)C1OC(N)=O` (centres unmarked) [Compound 1-F] gave an IC50 [1] of 0.63 µM and a Kd [2] of 200 nM.

`COC1CCC=CC(=O)Nc2cc(c(CN(C)CCN(C)C)c(O)c2Br)CC(C)CC(OC)C(O)C(C)C=C(C)C1OC(N)=O` (centres unmarked) [Compound 1-N] was tested, and the IC50 [1] was > 5 µM and the Kd [2] was 31000 nM.

`COC(=O)COc1cc2cc(c1)NC(=O)C=CCCC(OC)C(OC(N)=O)C(C)=CC(C)C(O)C(OC)CC(C)C2` (centres unmarked) [Compound 1-H] was tested, and the IC50 [1] was > 5 µM and the Kd [2] was 360 nM.

In the case of `C=CCOc1cc2cc(c1)NC(=O)C=CCCC(OC)C(OC(N)=O)C(C)=CC(C)C(O)C(OC)CC(C)C2` (centres unmarked) [Compound 1-B], the IC50 [1] is reported as > 5 µM and the Kd [2] is reported as 1000 nM.

`CO[C@H]1C[C@H](C)Cc2cc(O)cc(c2)NC(=O)CC(O)CC[C@H](OC)[C@@H](OC(N)=O)/C(C)=C/[C@H](C)[C@H]1O` (some centres unmarked) [III] was tested, and the IC50 [1] was > 5 µM and the Kd [2] was 1000 nM.

In the case of `COC1CCC=CC(=O)Nc2cc(cc(O)c2Br)CC(C)CC(OC)C(O)C(C)C=C(C)C1OC(N)=O` (centres unmarked) [Compound 1-J], the IC50 [1] is reported as > 5 µM and the Kd [2] is reported as 1700 nM.

In the case of `COC1CCC=CC(=O)Nc2cc(c(Br)c(O)c2Br)CC(C)CC(OC)C(O)C(C)C=C(C)C1OC(N)=O` (centres unmarked) [Compound 1-M], the IC50 [1] is reported as > 5 µM and the Kd [2] is reported as 5900 nM.

In the case of `CO[C@H]1C[C@H](C)Cc2cc(O)cc(c2)NC(=O)/C=C/CC[C@H](OC)[C@@H](OC(N)=O)/C(C)=C/[C@H](C)[C@H]1O` [Compound 1-A], the IC50 [3] is reported as 2500 nM, the IC50 [1] is reported as 0.85 µM and the Kd [2] is reported as 17 nM.

Work on `COC1CCC=CC(=O)Nc2cc(O)c(Br)c(c2)CC(C)CC(OC)C(O)C(C)C=C(C)C1OC(N)=O` (centres unmarked) [Compound 1-K] yielded an IC50 [1] of 0.8 µM and a Kd [2] of 140 nM.

`COC1CCC=CC(=O)Nc2cc(cc(OCC(=O)O)c2)CC(C)CC(OC)C(O)C(C)C=C(C)C1OC(N)=O` (centres unmarked) [Compound 1-I] was tested, and the IC50 [1] was > 5 µM and the Kd [2] was 930 nM.

`COc1cc2cc(c1)NC(=O)C=CCCC(OC)C(OC(N)=O)C(C)=CC(C)C(O)C(OC)CC(C)C2` (centres unmarked) [Compound 1-D] gave an IC50 [1] of 6 µM and a Kd [2] of 510 nM.

Source: US7241754B2, “2-Desmethyl ansamycin compounds” (priority 2003, dated 2007)
